The text below walks through data of EP3782997A1, “FUSED PYRIMIDINE COMPOUNDS AND PHARMACEUTICAL COMPOSITIONS THEREOF FOR THE TREATMENT OF FIBROTIC DISEASES” (Galapagos N.V., priority 2019, dated 2021).

For assay [1], the target named is hENPP2 (Homo sapiens, UniProt Q13822). Kind of assay: Human ENPP2 (hENPP2) biochemical assay using LPC as substrate. The note with it: 150 µM LPC (palmitoyl 16:0), 37°C for 30 min. The gist of the method:
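Enzyme at 1 or 3 µg/mL final in Tris-HCl pH 8.5, NaCl, KCl, CaCl2, fatty-acid-free BSA; reaction started with 150 µM LPC 16:0 (as added), 30 min at 37°C. Released choline developed with choline oxidase/peroxidase/TOOS/4-aminoantipyrine plus EGTA stop, read at 555 nm after 30 min; 1/3 dilutions from 50 µM give IC50.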

Assay [2] has as its system C57BL/6 mice. Briefly: Bleomycin (BLM) induced pulmonary fibrosis model. The note with it: both doses (10 mg/kg and 30 mg/kg, b.i.d. p.o., Day 7 to Day 21); vs. BLM/vehicle control, *p<0.05, Mann-Whitney. The class given is in vivo. From the text: The murine bleomycin induced pulmonary fibrosis model is a widely used standard animal model of pulmonary fibrosis (Walters & Kleeberger 2001). Bleomycin administration results in oxidative stress and acute inflammation with the subsequent onset of pulmonary fibrosis. Epithelial cell injury with reactive hyperplasia, basement membrane damage, clusters of spindle-shaped mesenchymal cells resembling fibroblastic foci, and interstitial as well as intra-alveolar fibrosis are histological characteristics of the bleomycin model similar to those of IPF.
For the purpose of the induction of pulmonary fibrosis 8 weeks old C57BL/6 mice with an average weight of ∼25 g randomly grouped in experimental groups were used. […]
Body weight and clinical signs were monitored throughout the experiment.
The main read-outs in the model were: • Blood for PK analysis • Body weight • Lung weight • Histopathological examination of lung tissue • Ashcroft score on slides stained for collagen with Crossman's trichrome, as well as evaluation of collagen deposition using digital image analysis (CaloPix software, TRIBVN Healthcare, France) on collagen-1A1 stained slides (immunohistochemistry, IHC) (Ashcroft et al. 1988; Hübner et al. 2008; Matsuse et al. 1999). […]

Assay [3] deals with Sprague-Dawley rats. Briefly: Rat pain model (partial sciatic nerve injury, von Frey and plantar tests). The class given is in vivo. The note with it: 10 mg/kg p.o. bid. As for the experimental part:
The neuropathic pain rat model originally established by Seltzer et al. (Seltzer et al. 1990) is used to evaluate the effect of a test compound against tactile allodynia and contingent thermal hyperalgesia caused by partial sciatic nerve injury (PSNL) induced by sciatic nerve partial ligature.
The test compounds are administered to the treatment groups on a daily basis, starting from post-surgical day 3 (D3), and continued until the end point day on D15.
Gabapentin is used as a positive control. […]
On the test days, pre-dose allodynia was evaluated prior to dosings, and the effects of the administered compounds assessed 2 hours post dosing. […]
In the manual test approach (10 g vF), a pre-calibrated 10 g von Frey hair was used to exert five repeats of filament presentations. […] The results were recorded as percentages of positive reactions within five repeats of filament presentations. […] The actual force application was monitored in real time to ensure its linearity and thus the proper performance of the test in each measurement. The peak force (g), i.e. the lowest force evoking paw withdrawal was recorded, and the absolute paw withdrawal thresholds (PWTs) calculated as medians of triplicate measurements. […]
The contingency of heat hyperalgesia due to PSNL injury was assessed on the test days 2 hours post dosing. […]

As usually defined, the IC50 is the concentration that gives 50% inhibition. For `Cc1cc(C)cc(Nc2ncc3c(n2)CN([C@@H]2CCN(C(=O)c4cc5nn[nH]c5cc4F)[C@H](C)C2)C3)c1` [Cpd 115, [(2R,4R)-4-[2-(3,5-dimethylanilino)-5,7-dihydropyrrolo[3,4-d]pyrimidin-6-yl]-2-methyl-1-piperidyl]-(6-fluoro-1H-benzotriazol-5-yl)methanone], the IC50 in assay [1] was in the range of 0.01 to 100 nM. Besides, the Ashcroft score result in assay [2] is recorded as “significantly decrease”. In addition, the allodynia result in assay [3] is given as “statistically significant reduction”. For the same compound, the heat hyperalgesia result in assay [3] (plantar test) was “statistically significant reduction”.

Compound `CCS(=O)(=O)Nc1cc(C(=O)N2CC[C@@H](N3Cc4cnc(Nc5cc(C)cc(C)c5)nc4C3)C[C@H]2C)ccn1` [compound 210, N-[4-[(2R,4R)-4-[2-(3,5-dimethylanilino)-5,7-dihydropyrrolo[3,4-d]pyrimidin-6-yl]-2-methyl-piperidine-1-carbonyl]-2-pyridyl]ethanesulfonamide] had an IC50 in assay [1] of 0.01 to 100 nM.

In assay [1], `Cc1cc(C)cc(Nc2ncc3c(n2)CN([C@@H]2CCN(C(=O)c4cncc(NS(C)(=O)=O)c4)[C@H](C)C2)C3)c1` [compound 211, N-[5-[(2R,4R)-4-[2-(3,5-dimethylanilino)-5,7-dihydropyrrolo[3,4-d]pyrimidin-6-yl]-2-methyl-piperidine-1-carbonyl]-3-pyridyl]methanesulfonamide] had an IC50 of more than 1000 nM.

Take `Cc1cc(C)cc(Nc2ncc3c(n2)CN([C@@H]2CCN(C(=O)c4ccnc(NS(=O)(=O)C(F)(F)F)c4)[C@H](C)C2)C3)c1` [compound 212, N-[4-[(2R,4R)-4-[2-(3,5-dimethylanilino)-5,7-dihydropyrrolo[3,4-d]pyrimidin-6-yl]-2-methyl-piperidine-1-carbonyl]-2-pyridyl]-1,1,1-trifluoro-methanesulfonamide]: the IC50 in assay [1] was 100 to 500 nM.

Compound `C[C@@H]1C[C@H](N2Cc3cnc(Nc4cc(F)cc(Cl)c4)nc3C2)CCN1C(=O)c1ccnc(NS(C)(=O)=O)c1` [compound 213, N-[4-[(2R,4R)-4-[2-(3-chloro-5-fluoro-anilino)-5,7-dihydropyrrolo[3,4-d]pyrimidin-6-yl]-2-methyl-piperidine-1-carbonyl]-2-pyridyl]methanesulfonamide] returned an IC50 in assay [1] of 0.01 to 100 nM.

Compound `C[C@@H]1C[C@@H](N2Cc3cnc(Nc4cc(F)cc(Cl)c4)nc3C2)CCN1C(=O)c1ccnc(NS(C)(=O)=O)c1` [compound 214, N-[4-[(2R,4S)-4-[2-(3-chloro-5-fluoro-anilino)-5,7-dihydropyrrolo[3,4-d]pyrimidin-6-yl]-2-methyl-piperidine-1-carbonyl]-2-pyridyl]methanesulfonamide] gave an IC50 in assay [1] of 100 to 500 nM.

As for `Cc1cc(Nc2ncc3c(n2)CN([C@@H]2CCN(C(=O)c4ccnc(NS(C)(=O)=O)c4)[C@H](C)C2)C3)ccc1C(F)(F)F` [compound 215, N-[4-[(2R,4R)-2-methyl-4-[2-[3-methyl-4-(trifluoromethyl)anilino]-5,7-dihydropyrrolo[3,4-d]pyrimidin-6-yl]piperidine-1-carbonyl]-2-pyridyl]methanesulfonamide], in assay [1], the IC50 lay within 0.01 to 100 nM.

In turn, `Cc1cc(Nc2ncc3c(n2)CN([C@H]2CCN(C(=O)c4ccnc(NS(C)(=O)=O)c4)[C@H](C)C2)C3)ccc1C(F)(F)F` [compound 216, N-[4-[(2R,4S)-2-methyl-4-[2-[3-methyl-4-(trifluoromethyl)anilino]-5,7-dihydropyrrolo[3,4-d]pyrimidin-6-yl]piperidine-1-carbonyl]-2-pyridyl]methanesulfonamide] displayed an IC50 in assay [1] of 0.01 to 100 nM.

`COc1cc(Nc2ncc3c(n2)CN([C@@H]2CCN(C(=O)c4ccnc(NS(C)(=O)=O)c4)[C@H](C)C2)C3)ccc1Cl` [compound 217, N-[4-[(2R,4R)-4-[2-(4-chloro-3-methoxy-anilino)-5,7-dihydropyrrolo[3,4-d]pyrimidin-6-yl]-2-methyl-piperidine-1-carbonyl]-2-pyridyl]methanesulfonamide] came in with an IC50 in assay [1] of 0.01 to 100 nM.

In assay [1], `Cc1cc(C)cc(Nc2ncc3c(n2)CN([C@@H]2CCN(C(=O)c4cc(NS(C)(=O)=O)ncc4C)[C@H](C)C2)C3)c1` [compound 218, N-[4-[(2R,4R)-4-[2-(3,5-dimethylanilino)-5,7-dihydropyrrolo[3,4-d]pyrimidin-6-yl]-2-methyl-piperidine-1-carbonyl]-5-methyl-2-pyridyl]methanesulfonamide] came in with an IC50 of 0.01 to 100 nM.

`C[C@@H]1C[C@@H](N2Cc3cnc(Nc4cccc(OC5CC5)c4)nc3C2)CCN1C(=O)c1ccnc(NS(C)(=O)=O)c1` [compound 219, N-[4-[(2R,4S)-4-[2-[3-(cyclopropoxy)anilino]-5,7-dihydropyrrolo[3,4-d]pyrimidin-6-yl]-2-methyl-piperidine-1-carbonyl]-2-pyridyl]methanesulfonamide] had an IC50 in assay [1] of 100 to 500 nM.
